Values quoted from earlier work, collected in patent US20070053923A1, “Dna vaccine composition with enhanced immunogenicity” (priority 2003, published 2007).

Test system: immune cells
Conditions: via FPR and FPRL1, as reported

WKYMVM-NH2
Activation of immune cells: potent activator of immune cells
